# Measured values as given in US8445444B2, “Compositions and methods for diagnosing, treating, and preventing prostate conditions” (Phigenix, Inc., priority 2007, dated 2013).
# Assays:
# Format in all cases: cell-based, human
# PC3/AR+ = test: MTT cell viability assay; conditions: PC3/AR+ compared with PC3
# Description: MTT cell viability assay: To examine the effects of hBD-1 on cell growth, metabolic 3-[4,5-dimethylthiazol-2-yl]-2,5-diphenyl tetrazolium bromide (MTT) assay was performed. DU145, LNCaP, PC3 and PC3/AR+ cells co-transfected with pvgRXR plasmid and pIND/hBD-1 construct or control pvgRXR plasmid were seeded onto a 96-well plate at 1-5×10^3 cells per well. Twenty-four hours after seeding, fresh growth medium was added containing 10 μM Pon A daily to induce hBD-1 expression for 24, 48 and 72 h after which the MTT assay was performed according to the manufacturer's instructions (Promega). Reactions were performed three times in triplicate.
# DU145 [1] = test: Annexin V-FITC/propidium iodide flow cytometry
# Description: (§1) Flow Cytometry: PC3 and DU145 cells co-transfected with the DEFB1 expression system were grown in 60-mm dishes and induced for 12, 24, and 48 hours with 10 μM Ponasterone A. Following each incubation period, the medium was collected from the plates (to retain any detached cells) and combined with PBS used to wash the plates. The remaining attached cells were harvested by trypsinization and combined with the detached cells and PBS. The cells were then pelleted at 4° C. (500×g) for 5 min, washed twice in PBS, and resuspended in 100 ul of 1× Annexin binding buffer (0.1 M Hepes/NaOH at pH 7.4, 1.4 M NaCl, 25 mM CaCl2) containing 5 μl of Annexin V-FITC and 5 μl of PI. The cells were incubated at RT for 15 min in the dark, then diluted with 400 μl of 1× Annexin binding buffer and analyzed by FACscan (Becton Dickinson, San Jose, Calif.). All reactions were performed three times.
# (§2) Flow cytometry: PC3 and DU145 cells transfected with the hBD-1 expression system were grown in 60-mm dishes and induced for 12, 24, and 48 h with 10 μM Pon A. Following each incubation period, the medium was collected from the plates (to retain any detached cells) and combined with PBS used to wash the plates. The remaining attached cells were harvested by trypsinization and combined with the detached cells and PBS. The cells were then pelleted at 4° C. (500×g) for 5 min, washed twice in PBS, and resuspended in 100 μl, of 1× Annexin binding buffer (0.1 M Hepes/NaOH at pH 7.4, 1.4 M NaCl, 25 mM CaCl2) containing […] Annexin V-FITC and 5 μl of PI. The cells were incubated at RT for 15 min in the dark, then diluted with 400 μl of 1× Annexin binding buffer and analyzed by FACscan (Becton Dickinson, San Jose, Calif.). All reactions were performed three times.
# PC3 [2] = test: Annexin V-FITC/propidium iodide flow cytometry
# Description: as §1, §2
# DU145 [3] = test: Acridine orange/ethidium bromide membrane integrity
# Description: (§3) Analysis of Membrane Permeability: Acridine orange (AO)/ethidium bromide (EtBr) dual staining was performed to identify changes in cell membrane integrity, as well as apoptotic cells by staining the condensed chromatin. AO stains viable cells as well as early apoptotic cells, whereas EtBr stains late stage apoptotic cells that have lost […]. Briefly, cells were seeded into 2 chamber culture slides (BD Falcon, USA). Cells transfected with empty pIND plasmid/pvgRXR or pIND DEFB1/pvgRXR were induced for 24 or 48 h with media containing 10 μM Ponasterone A. Control cells were provided fresh media at 24 and 48 h. In order to determine the effect of PAX2 inhibition on membrane integrity, separate culture slides containing DU145, PC3 and LNCaP were treated with PAX2 siRNA and incubated for 4 days. Following this, cells were washed once with PBS and stained with 2 ml of a mixture (1:1) of AO (Sigma, USA) and EtBr (Promega, USA) (5 ug/ml) solution for 5 min. Following staining, the cells were again washed with PBS. Fluorescence was viewed by a Zeiss LSM 5 Pascal Vario 2 Laser Scanning Confocal Microscope (Carl Zeiss Jena, Germany). The excitation color wheel contain BS505-530 (green) and LP560 (red) filter blocks which allowed for the separation of emitted green light from AO into the green channel and red light from EtBr into the red channel. The laser power output and gain control settings within each individual experiment were identical between control and DEFB1 induced cells. The excitation was provided by a Kr/Ar mixed gas laser at wavelengths of 543 nm for AO and 488 nm for EtBr. Slides were analyzed under 40× magnification and digital images were stored as uncompressed TIFF files and exported into Photoshop CS software (Adobe Systems, San Jose, Calif.) for image processing and hard copy presentation.
# (§4) Analysis of membrane integrity: Acridine orange (AO)/ethidium bromide (EtBr) dual staining was performed to identify changes in cell membrane integrity, as well as apoptotic cells by staining the condensed chromatin. AO stains viable cells and early apoptotic cells, whereas EtBr stains late stage apoptotic cells that have compromised membranes. Briefly, PC3, DU145 and LNCaP cells were seeded into 2-chamber culture slides (BD Falcon). Cells transfected with empty plasmid or hBD-1 plasmid were induced for 24 or 48 h with media containing 10 μM Pon A, while control cells received fresh growth media at each time point. After induction, cells were washed once with PBS and stained with 2 ml of a mixture (1:1) of AO (Sigma, St. Louis, Mo.) and EtBr (Promega) (5 μg/ml) solution for 5 min and were again washed with PBS.
# (§5) Fluorescence was viewed by a Zeiss LSM 5 Pascal Vario 2 Laser Scanning Confocal Microscope (Carl Zeiss). The excitation color wheel contains BS505-530 (green) and LP560 (red) filter blocks which allowed for the separation of emitted green light from AO into the green channel and red light from EtBr into the red channel. The laser power output and gain control settings within each individual experiment were identical between control and hBD-1 induced cells. The excitation was provided by a Kr/Ar mixed gas laser at wavelengths of 543 nm for AO and 488 nm for EtBr. Slides were analyzed under 40× magnification and digital images were stored as uncompressed TIFF files and exported into Photoshop CS software (Adobe Systems) for image processing and hard copy presentation. […]
# LNCaP = test: as above; conditions: 48 h hBD-1 induction
# Description: as §3, §4, §5
# PC3 [4] = test: as above
# Description: as §3, §4, §5
substance,measurement,setting,value
"DEFB1: human beta defensin-1 expressed from the ecdysone inducible pIND/DEFB1 construct, induced with Ponasterone A (DHYNCVSSGGQCLYSACPIFTKIQGTCYRGKAKCCK; UniProt P60022 33-68, looked up)",hBD-1 cytotoxicity with ectopic AR expression,PC3/AR+,no difference between PC3/AR+ and PC3 cells
same,number of apoptotic cells (lower and upper right quadrants),"DU145 [1]; DU145, 12 h DEFB1 (hBD-1) induction",12%
same,number of apoptotic cells (lower and upper right quadrants),"DU145 [1]; DU145, 24 h",34%
same,number of apoptotic cells (lower and upper right quadrants),"DU145 [1]; DU145, 48 h",59%
same,number of apoptotic cells (lower and upper right quadrants),"PC3 [2]; PC3, 12 h DEFB1 (hBD-1) induction",10%
same,number of apoptotic cells (lower and upper right quadrants),"PC3 [2]; PC3, 24 h",20%
same,number of apoptotic cells (lower and upper right quadrants),"PC3 [2]; PC3, 48 h",44%
same,membrane integrity (AO/EtBr staining),"DU145 [3]; DU145, 24 h DEFB1 (hBD-1) induction",accumulation of EtBr in the cytoplasm
same,membrane integrity (AO/EtBr staining),"DU145 [3]; DU145, 48 h DEFB1 (hBD-1) induction",condensed nuclei and appeared yellow
same,membrane integrity (AO/EtBr staining),LNCaP,no observable alterations to membrane integrity
same,membrane integrity (AO/EtBr staining),"PC3 [4]; PC3, 24 h DEFB1 (hBD-1) induction",accumulation of EtBr in the cytoplasm
same,membrane integrity (AO/EtBr staining),"PC3 [4]; PC3, 48 h DEFB1 (hBD-1) induction",condensed nuclei and appeared yellow
